Reference: patent US10188674B2, “Parenteral formulations for administering macrolide antibiotics” (Cempra Pharmaceuticals, Inc., priority 2012, dated 2019)

What was measured:
[1] = system: monkey; experiment: 28 day toxicology study, intravenous infusion, monkey; assay type: in vivo; details: 28 days, tartrate-buffered solution of 1 mg/mL in 3% mannitol infused at approximately 1 mL/min
From the text: (§1) An intravenous infusion solution of SOL and related compounds suitable for treatment in a disease such as moderately severe to severe community acquired bacterial pneumonia (CABP) is needed. […] However, without being bound by theory, it is believed herein that infusion at higher concentrations and/or at higher rates of infusion, which are highly desirable in the clinical setting, may not be practical with current formulations due to the substantially lower solubility observed with SOL and related compounds compared to other macrolide, enolide, and ketolide compounds.

[2] = Dynamic Precipitation Model (absorbance at 500 nm on infusion into blood surrogate); assay type: physicochemical
Description: Dynamic Precipitation Model. The dynamic precipitation apparatus is shown in FIG. 1, and is also described in Johnson et al., (2003). The apparatus includes a predetermined distance, illustratively a 15 cm distance, between the tip of the injection needle and the UV flow cell, and three main components to simulate blood flow and different infusion rates of drug. Illustratively, a Cole-Palmer-Masterflex® 7520-00 peristaltic pump is used to direct the flow of blood surrogate at 5 mL/min. Illustratively, a Harvard Apparatus Precision Syringe Pump 22 is used to infuse drug formulations into the system at various injection rates. Illustratively, a Cary UV-50 Bio Spectrophotometer with a 1.00 cm flow cell is used to monitor absorbance as a measure of precipitation in the formulation-blood surrogate system. Each sample is prepared by dissolving test compound and formulation agents into water or vehicle, and adjusting the pH with either 1 M HCl or 1 M NaOH, as appropriate to the indicated final concentration of test compound. Lactic, citric, and tartaric acid formulation agent stock solutions are made by dissolving the predetermined weight of solid or liquid into water and adjusting pH with either 1 M HCl or 1 M NaOH. The blood surrogate (Isotonic Sorensen's Phosphate Buffer, 0.067 M, pH 7.4) is pumped from a reservoir through Tygon® tubing (R-6306) fitted with 2 IV-set Y-injection sites that pass into the flow cell and terminate in a waste container. […]-35 flow meter, along with a timer and graduated cylinder, is used to measure the rate of surrogate blood flow through the system. Illustratively, flow is 5 mL/min. The test compound formulations are infused at different rates through the downstream second Y-injection site into the flow of the blood surrogate entering into the flow cell. A 0.001 M HCl solution is injected into the first Y-injection site following each infusion of test compound to flush the downstream tubing and flow cell. All injections are performed at 25° C. The spectrophotometer software (Cary UVWin) is set to read a constant absorbance, illustratively 500 nm, versus time. Samples are made with buffer and drug concentrations as described. After the flow rate is confirmed at 5 mL/min, the spectrophotometer is set to record absorbance at 500 nm for 5-10 minutes, and injections are performed at different rates as specified. To prevent any residual precipitation build up in the tubing or flow cell, a flush of pH 3 HCl is performed between injections. The flow cell is optionally visually inspected between runs for the presence of precipitation. Static precipitation measurements are also optionally performed by a two-fold serial dilution of test compound formulation in blood surrogate using a laser pointer as a Tyndall beam to determine the presence of particulates. […] An absorbance at or above 0.05 is considered to be the threshold level for assessing precipitation having phlebitic potential.

[3] = Acid dissociation constants of SOL; assay type: physicochemical
From the text: [drawing 4] and pharmaceutically acceptable salts, hydrates, solvates, esters, and prodrugs thereof. The following acid dissociation constants are observed for SOL, pKa1=9.44; pKa2=3.5. Such dissociation constants are illustrative of compounds that may be characterized as having low basicity.

[4] = system: New Zealand White female rabbits; experiment: Tolerance Evaluation, Multiple-Dose Rabbit Ear Vein Model Study; assay type: in vivo
Description: Tolerance Evaluation of Following Intravenous Infusion in the Rabbit. Multiple-Dose Rabbit Ear Vein Model Study. New Zealand White female rabbits weighing 2.5-3.2 kg are evaluated for pain, ear inflammation and phlebitis after receiving an intravenous infusion of test compound once daily for 5 days.
SOL is dissolved in a 0.5% lactic acid formulation at pH 4, and then into 0.45% saline at concentrations of 2 mg/mL or 3 mg/mL.
Four rabbits are dosed; one vehicle-dosed and one each at 2 mg/mL (rate of 3 mL/min), 3 mg/mL (rate of 3 mL/min) and 3 mg/mL (rate of 4 mL/min). All rabbits receive a dose volume of 5 mL and are dosed via intravenous infusion in the right marginal ear vein once daily for 5 days. Animals are observed during and post (30 minutes) each infusion and reactions recorded.

[5] = system: dog; experiment: 28 day toxicology study, intravenous infusion, dog; assay type: in vivo; details: 28 days, tartrate-buffered solution of 1 mg/mL in 3% mannitol infused at approximately 1 mL/min
From the text: as §1

[6] = system: New Zealand White female rabbits; experiment: Pain Tolerance Evaluation, Single Dose Rabbit Ear Vein Model Study; assay type: in vivo; details: single dose infusions in marginal ear vein, observed during and 30 minutes post infusion
Description: Pain Tolerance Evaluation Following Intravenous Infusion in Rabbit. Single Dose Rabbit Ear Vein Model Study. New Zealand White female rabbits weighing 2.5-3.2 kg are evaluated for pain, ear inflammation and phlebitis after intravenous infusion of test compound. Commercial azithromycin citrate is used as a positive control.
CEM-101 lyo (SOL (250.0 mg), mannitol, USP (250.0 mg), L(+)-tartaric acid, USP (29.0 mg), sodium hydroxide, NF (for pH adjustment to pH 4.2)) is reconstituted in a vehicle or formulation as described herein. The placebo is the same formulation without SOL. The reconstituted SOL or placebo is dissolved in an appropriate vehicles, such as 0.45% saline, 0.5% lactic acid at pH 4 in 0.45% saline, 0.5% lactic acid with 10 mM tartaric acid at pH 4 in 0.45% saline. CEM-101 lyo is dissolved in the appropriate vehicle at concentrations of 2 mg/mL or 3 mg/mL. The CEM-101 placebo formulation is dissolved in 0.45% saline. All rabbits are weighed to calculate dosing volumes.
Azithromycin lyophilized vials are commercially available azithromycin citrate for injection (ZITHROMAX IV) in lyophilized form in a 10-mL vial equivalent to 500 mg of azithromycin for intravenous administration. […]
Animals were observed during and post (30 minutes) each infusion, and reactions were scored according to a modified Draize Score and recorded. […]

CC[C@H]1OC(=O)[C@@](C)(F)C(=O)[C@H](C)[C@@H](O[C@@H]2O[C@H](C)C[C@H](N(C)C)[C@H]2O)[C@](C)(OC)C[C@@H](C)C(=O)[C@H](C)[C@H]2N(CCCCn3cc(-c4cccc(N)c4)nn3)C(=O)O[C@]12C [SOL, solithromycin]
pain or other adverse events [1]: without evidence of pain or other adverse events | Absorbance ([2]; 1 mg/mL in 0.45% Saline, 0.3 mL/min): BQL | Absorbance ([2]; 1 mg/mL in 0.45% Saline, 1.0 mL/min): BQL | Absorbance ([2]; 1 mg/mL in 0.45% Saline, 3.0 mL/min): BQL | Absorbance ([2]; 1 mg/mL in 0.45% Saline, 6.0 mL/min): about 0.1 | injection rates at which precipitation is noted ([2]; 1 mg/mL in 5% Mannitol): greater than or equal to 3.0 mL/min | Absorbance ([2]; 1 mg/mL in 5% Mannitol, 0.3 mL/min): BQL | Absorbance ([2]; 1 mg/mL in 5% Mannitol, 1.0 mL/min): BQL | Absorbance ([2]; 1 mg/mL in 5% Mannitol, 3.0 mL/min): 0.01 | Absorbance ([2]; 1 mg/mL in 5% Mannitol, 6.0 mL/min): about 0.05 | precipitation ([2]; 2 mg/mL in 10 mM Tartaric Acid in 5% Mannitol, pH 4.2, 3 mL/min, infusion 1 minute): minimal precipitation | precipitation ([2]; 2 mg/mL in 20 mM Tartaric Acid in 5% Mannitol, pH 4.2, 3 mL/min, infusion 1 minute): minimal precipitation | precipitation ([2]; 2 mg/mL in 38.5 mM Tartaric Acid and 0.5% Monothioglycerol in 3% Mannitol, pH 4.0, 2, 3 or 4 mL/min, infusion 5 minutes): minimal precipitation | precipitation ([2]; 2 mg/mL in 38.5 mM Tartaric Acid in 5% Mannitol, pH 4.0, 2, 3 or 4 mL/min, infusion 5 minutes): minimal precipitation | Absorbance ([2]; 2 mg/mL in 0.45% Saline, 0.3 mL/min): BQL | Absorbance ([2]; 2 mg/mL in 0.45% Saline, 1.0 mL/min): BQL | Absorbance ([2]; 2 mg/mL in 0.45% Saline, 3.0 mL/min): about 0.02 | Absorbance ([2]; 2 mg/mL in 0.45% Saline, 6.0 mL/min): about 0.1 | injection rates at which precipitation is noted ([2]; 2 mg/mL in 5% Mannitol): greater than or equal to 1.0 mL/min | Absorbance ([2]; 2 mg/mL in 5% Mannitol, 0.3 mL/min): BQL | Absorbance ([2]; 2 mg/mL in 5% Mannitol, 1.0 mL/min): about 0.03 | Absorbance ([2]; 2 mg/mL in 5% Mannitol, 3.0 mL/min): about 0.06 | Absorbance ([2]; 2 mg/mL in 5% Mannitol, 6.0 mL/min): about 0.1 | effect of tartaric acid on observed precipitation ([2]; 3 mg/mL in 5 mM Tartaric Acid in 5% Mannitol pH 4.2 vs SOL 2 mg/mL in 5% Mannitol, 2 or 3 mL/min, infusion 2 minutes): substantially decreases the amount of observed precipitation | injection rates at which precipitation is noted ([2]; 3 mg/mL in 0.45% Saline): greater than or equal to 1.0 mL/min | Absorbance ([2]; 3 mg/mL in 0.45% Saline, 0.3 mL/min): BQL | Absorbance ([2]; 3 mg/mL in 0.45% Saline, 1.0 mL/min): about 0.02 | Absorbance ([2]; 3 mg/mL in 0.45% Saline, 3.0 mL/min): about 0.1 | Absorbance ([2]; 3 mg/mL in 0.45% Saline, 6.0 mL/min): about 0.3 | injection rates at which precipitation is noted ([2]; 3 mg/mL in 5% Mannitol): greater than or equal to 1.0 mL/min | Absorbance ([2]; 3 mg/mL in 5% Mannitol, 0.3 mL/min): BQL | Absorbance ([2]; 3 mg/mL in 5% Mannitol, 1.0 mL/min): about 0.1 | Absorbance ([2]; 3 mg/mL in 5% Mannitol, 3.0 mL/min): about 0.4 | Absorbance ([2]; 3 mg/mL in 5% Mannitol, 6.0 mL/min): about 0.6 | Absorbance ([2]; 3 mg/mL, 3 mL/min, pH 4.0, 0.9% NaCl): − ((−) = ≥0.05) | effect of citrate buffer on precipitation ([2]; 0.5, 1 and 5 mM citrate buffer (pH 4) in 0.45% saline, 2 mg/mL and 3 mg/mL): does not significantly reduce precipitation | injection rates at which precipitation is noted ([2]; 2 or 1 mg/mL in 0.45% saline, 1.0 mL/min is borderline): greater than 1.0 mL/min | effect of tartrate buffer on precipitation ([2]; 10 or 25 mM tartrate buffer (pH 4) in 0.45% saline, 2 mg/mL and 3 mg/mL): does not significantly reduce precipitation | pKa1 [3]: 9.44 | pKa2 [3]: 3.5 | observations, Days 4 and 5 ([4]; 2 mg/mL, rate of 3 mL/min, also seen in the vehicle-treated rabbit): mechanical irritation around the needle stick, without reaction distal to the needle | further observation ([4]; 3 mg/mL, rate of 4 mL/min): Head and ear twitching | observations, Day 3 until day 5 ([4]; 3 mg/mL, rates of 3 or 4 mL/min): vessel dilation and irritation around and past the needle stick | adverse effects, Days 1 and 2 ([4]; 0.5% lactic acid formulation pH 4 in 0.45% saline, 5 mL once daily for 5 days, any of the rabbits): No adverse effects | pain or other adverse events [5]: without evidence of pain or other adverse events

CC[C@H]1OC(=O)[C@H](C)[C@@H](O[C@H]2C[C@@](C)(OC)[C@@H](O)[C@H](C)O2)[C@H](C)[C@@H](O[C@@H]2O[C@H](C)C[C@H](N(C)C)[C@H]2O)[C@](C)(O)C[C@@H](C)C(=O)[C@H](C)[C@@H](O)[C@]1(C)O [erythromycin-lactobionate, erythromycin lactobionate, reference compound]
Absorbance ([2]; 2 mg/mL, 3 mL/min, 0.9% NaCl): ++++ ((++++) = BQL of <0.003)

Azithromycin Citrate [Azitromycin citrate, reference compound]
Absorbance ([2]; 2 mg/mL, 4 mL/min, 0.45% NaCl): ++++ ((++++) = BQL of <0.003) | precipitation ([2]; citrate buffered solution in 0.45% saline at 2 mg/mL and 4 mL/min): does not exhibit precipitation and BQL | reactions upon test article administration [6]: strong movement of ear, head and body with vocalization
